Experiments:
Assay type in all cases: biochemical
Settings in all cases: 300-350 nM
AMPK A1/B1/G1 = AMPK A1/B1/G1 (Homo sapiens (Human), UniProt Q13131); assay: SelectScreen Kinase Profiling: AMPK
Source text: (§1) Table 2 below highlights the selectivity of a representative compound of the invention against a panel of 50 kinases (assessed using the Invitrogen SelectScreen® Kinase Profiling Service).

ERBB2 (HER2) = ERBB2 (HER2) (Homo sapiens (Human), UniProt P04626); assay: SelectScreen Kinase Profiling: ERBB2
Source text: as §1

GSK3B (GSK3 beta) = GSK3B (GSK3 beta) (Homo sapiens (Human), UniProt P49841); assay: SelectScreen Kinase Profiling: GSK3B
Source text: as §1

IGF1R = IGF1R (Homo sapiens (Human), UniProt P08069); assay: SelectScreen Kinase Profiling: IGF1R
Source text: as §1

KDR (VEGFR2) = KDR (VEGFR2) (Homo sapiens (Human), UniProt P35968); assay: SelectScreen Kinase Profiling: KDR
Source text: as §1

LCK = LCK (Homo sapiens (Human), UniProt P06239); assay: SelectScreen Kinase Profiling: LCK
Source text: as §1

MAPK8 (JNK1) = MAPK8 (JNK1) (Homo sapiens (Human), UniProt P45983); assay: SelectScreen Kinase Profiling: MAPK8
Source text: as §1

MET (cMet) = MET (cMet) (Homo sapiens (Human), UniProt P08581); assay: SelectScreen Kinase Profiling: MET
Source text: as §1

PDGFRB (PDGFR beta) = PDGFRB (PDGFR beta) (Homo sapiens (Human), UniProt P09619); assay: SelectScreen Kinase Profiling: PDGFRB
PLK1 = PLK1 (Homo sapiens (Human), UniProt P53350); assay: SelectScreen Kinase Profiling: PLK1
Source text: as §1

Src = Src (Homo sapiens (Human), UniProt P12931); assay: SelectScreen Kinase Profiling: SRC

Chain of PDGFRB (PDGFR beta) (P09619 33-1106): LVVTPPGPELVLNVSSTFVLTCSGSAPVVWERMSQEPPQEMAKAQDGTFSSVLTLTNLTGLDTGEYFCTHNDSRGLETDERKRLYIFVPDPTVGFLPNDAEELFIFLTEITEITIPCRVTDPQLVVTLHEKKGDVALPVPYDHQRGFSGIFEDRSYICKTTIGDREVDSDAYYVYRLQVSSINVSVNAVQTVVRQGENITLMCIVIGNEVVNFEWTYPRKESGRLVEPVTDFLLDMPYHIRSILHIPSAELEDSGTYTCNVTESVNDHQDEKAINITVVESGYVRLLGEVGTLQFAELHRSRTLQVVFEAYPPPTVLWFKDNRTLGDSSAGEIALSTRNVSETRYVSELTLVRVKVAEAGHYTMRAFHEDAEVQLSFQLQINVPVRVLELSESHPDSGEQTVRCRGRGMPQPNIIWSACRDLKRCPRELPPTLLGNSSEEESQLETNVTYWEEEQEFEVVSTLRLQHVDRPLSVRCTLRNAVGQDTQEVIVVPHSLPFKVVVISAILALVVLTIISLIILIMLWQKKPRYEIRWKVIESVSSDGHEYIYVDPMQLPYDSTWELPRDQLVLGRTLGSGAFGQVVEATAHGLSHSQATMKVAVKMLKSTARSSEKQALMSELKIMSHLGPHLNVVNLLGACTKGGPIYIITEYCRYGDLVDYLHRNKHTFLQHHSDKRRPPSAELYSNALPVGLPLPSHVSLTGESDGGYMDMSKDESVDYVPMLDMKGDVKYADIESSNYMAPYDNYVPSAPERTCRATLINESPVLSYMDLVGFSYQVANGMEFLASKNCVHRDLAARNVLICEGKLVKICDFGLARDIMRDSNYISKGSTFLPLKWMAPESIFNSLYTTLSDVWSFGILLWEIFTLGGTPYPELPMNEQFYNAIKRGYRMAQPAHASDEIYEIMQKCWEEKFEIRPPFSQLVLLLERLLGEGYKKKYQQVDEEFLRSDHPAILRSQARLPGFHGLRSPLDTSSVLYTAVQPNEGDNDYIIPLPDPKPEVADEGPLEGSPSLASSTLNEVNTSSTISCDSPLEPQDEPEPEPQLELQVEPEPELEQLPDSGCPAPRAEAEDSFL
Chain of GSK3B (GSK3 beta) (P49841 whole entry): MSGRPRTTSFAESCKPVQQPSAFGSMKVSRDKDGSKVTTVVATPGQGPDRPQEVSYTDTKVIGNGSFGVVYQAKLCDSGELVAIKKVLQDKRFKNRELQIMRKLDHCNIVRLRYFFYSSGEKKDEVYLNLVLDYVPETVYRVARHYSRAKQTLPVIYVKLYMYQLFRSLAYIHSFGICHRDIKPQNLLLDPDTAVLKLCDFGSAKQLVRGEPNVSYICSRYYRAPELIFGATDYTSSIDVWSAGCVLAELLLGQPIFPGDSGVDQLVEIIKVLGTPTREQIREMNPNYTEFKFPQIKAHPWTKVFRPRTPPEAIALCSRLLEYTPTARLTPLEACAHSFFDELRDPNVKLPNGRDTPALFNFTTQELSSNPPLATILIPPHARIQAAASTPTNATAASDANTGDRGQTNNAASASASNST
Chain of LCK (P06239 whole entry): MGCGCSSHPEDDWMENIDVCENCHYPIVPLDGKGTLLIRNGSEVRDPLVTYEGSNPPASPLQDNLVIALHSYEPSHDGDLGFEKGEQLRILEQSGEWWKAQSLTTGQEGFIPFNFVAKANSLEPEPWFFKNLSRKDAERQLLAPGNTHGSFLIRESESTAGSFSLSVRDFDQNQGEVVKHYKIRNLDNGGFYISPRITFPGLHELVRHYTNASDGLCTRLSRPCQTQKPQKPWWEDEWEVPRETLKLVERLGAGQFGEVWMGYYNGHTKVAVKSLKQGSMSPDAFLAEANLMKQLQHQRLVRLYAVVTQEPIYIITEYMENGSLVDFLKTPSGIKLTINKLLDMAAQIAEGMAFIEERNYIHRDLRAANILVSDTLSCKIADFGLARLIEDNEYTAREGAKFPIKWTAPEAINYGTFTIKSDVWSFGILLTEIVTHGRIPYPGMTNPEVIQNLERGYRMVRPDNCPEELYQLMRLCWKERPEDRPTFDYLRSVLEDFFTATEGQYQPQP
Chain of ERBB2 (HER2) (P04626 23-1255): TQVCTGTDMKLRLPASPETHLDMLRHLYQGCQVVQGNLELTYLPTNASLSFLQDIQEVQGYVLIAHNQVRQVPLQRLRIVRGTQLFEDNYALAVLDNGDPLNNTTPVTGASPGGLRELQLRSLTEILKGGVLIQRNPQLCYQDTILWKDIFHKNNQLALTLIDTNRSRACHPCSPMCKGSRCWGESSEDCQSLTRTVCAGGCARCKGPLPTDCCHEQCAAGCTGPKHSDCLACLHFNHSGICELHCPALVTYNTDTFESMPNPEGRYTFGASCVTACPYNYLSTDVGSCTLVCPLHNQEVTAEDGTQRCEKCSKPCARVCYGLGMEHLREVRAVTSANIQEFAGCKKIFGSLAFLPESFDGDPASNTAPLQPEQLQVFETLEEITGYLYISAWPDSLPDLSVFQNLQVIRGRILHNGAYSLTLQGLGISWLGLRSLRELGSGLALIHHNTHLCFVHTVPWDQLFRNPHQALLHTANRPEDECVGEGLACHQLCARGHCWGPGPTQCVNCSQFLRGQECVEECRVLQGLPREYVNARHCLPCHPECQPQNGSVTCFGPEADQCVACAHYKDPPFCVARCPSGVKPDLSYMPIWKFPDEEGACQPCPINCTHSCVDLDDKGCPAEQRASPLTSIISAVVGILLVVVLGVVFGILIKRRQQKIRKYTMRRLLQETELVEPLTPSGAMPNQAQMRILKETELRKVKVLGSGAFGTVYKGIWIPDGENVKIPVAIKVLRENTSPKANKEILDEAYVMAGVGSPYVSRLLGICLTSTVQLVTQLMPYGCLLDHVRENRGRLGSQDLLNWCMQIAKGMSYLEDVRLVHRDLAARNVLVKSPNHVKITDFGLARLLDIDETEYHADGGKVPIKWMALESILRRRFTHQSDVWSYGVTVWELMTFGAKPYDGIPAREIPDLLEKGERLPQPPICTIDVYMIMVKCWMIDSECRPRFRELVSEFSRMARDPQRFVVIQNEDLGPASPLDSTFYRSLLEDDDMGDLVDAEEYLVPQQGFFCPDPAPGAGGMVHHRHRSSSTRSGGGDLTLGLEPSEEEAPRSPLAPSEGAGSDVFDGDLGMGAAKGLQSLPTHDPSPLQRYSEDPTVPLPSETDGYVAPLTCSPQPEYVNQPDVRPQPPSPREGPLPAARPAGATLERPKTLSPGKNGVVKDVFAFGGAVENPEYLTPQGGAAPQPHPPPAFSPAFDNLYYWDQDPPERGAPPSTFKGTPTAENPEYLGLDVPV
Chain of IGF1R (P08069 31-1367): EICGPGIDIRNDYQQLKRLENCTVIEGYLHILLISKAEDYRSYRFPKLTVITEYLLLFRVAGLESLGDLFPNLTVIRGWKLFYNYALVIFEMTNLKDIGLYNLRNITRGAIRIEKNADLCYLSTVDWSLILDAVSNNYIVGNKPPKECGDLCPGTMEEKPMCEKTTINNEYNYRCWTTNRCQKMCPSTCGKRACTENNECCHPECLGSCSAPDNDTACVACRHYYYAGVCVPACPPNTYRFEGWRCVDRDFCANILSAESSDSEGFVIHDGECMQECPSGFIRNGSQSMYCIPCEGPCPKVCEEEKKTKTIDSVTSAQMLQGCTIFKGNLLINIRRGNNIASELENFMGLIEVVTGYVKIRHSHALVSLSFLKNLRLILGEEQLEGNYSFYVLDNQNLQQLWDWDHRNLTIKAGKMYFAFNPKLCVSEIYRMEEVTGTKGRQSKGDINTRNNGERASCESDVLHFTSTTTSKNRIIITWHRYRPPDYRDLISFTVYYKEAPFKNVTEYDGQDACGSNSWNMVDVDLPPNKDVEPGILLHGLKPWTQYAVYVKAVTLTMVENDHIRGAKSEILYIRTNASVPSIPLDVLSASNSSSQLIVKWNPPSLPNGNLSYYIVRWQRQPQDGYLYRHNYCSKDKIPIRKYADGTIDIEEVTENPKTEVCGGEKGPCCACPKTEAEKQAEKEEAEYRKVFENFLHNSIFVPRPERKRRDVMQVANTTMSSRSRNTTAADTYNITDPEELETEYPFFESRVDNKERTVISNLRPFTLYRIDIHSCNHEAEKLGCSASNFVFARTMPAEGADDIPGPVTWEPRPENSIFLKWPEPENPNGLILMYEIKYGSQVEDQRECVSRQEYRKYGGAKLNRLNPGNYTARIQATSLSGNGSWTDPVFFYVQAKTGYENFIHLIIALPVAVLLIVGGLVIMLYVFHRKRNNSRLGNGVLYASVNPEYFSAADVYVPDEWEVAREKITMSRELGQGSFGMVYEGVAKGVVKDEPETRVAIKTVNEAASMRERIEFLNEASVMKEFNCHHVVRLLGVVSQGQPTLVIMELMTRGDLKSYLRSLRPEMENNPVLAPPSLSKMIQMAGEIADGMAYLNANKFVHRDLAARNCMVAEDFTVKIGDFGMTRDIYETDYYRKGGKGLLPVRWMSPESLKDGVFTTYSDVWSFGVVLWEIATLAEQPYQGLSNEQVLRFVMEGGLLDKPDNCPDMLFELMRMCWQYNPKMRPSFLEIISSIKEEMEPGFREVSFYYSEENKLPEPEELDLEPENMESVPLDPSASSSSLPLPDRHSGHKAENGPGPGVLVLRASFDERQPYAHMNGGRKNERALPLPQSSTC
Chain of MAPK8 (JNK1) (P45983 whole entry): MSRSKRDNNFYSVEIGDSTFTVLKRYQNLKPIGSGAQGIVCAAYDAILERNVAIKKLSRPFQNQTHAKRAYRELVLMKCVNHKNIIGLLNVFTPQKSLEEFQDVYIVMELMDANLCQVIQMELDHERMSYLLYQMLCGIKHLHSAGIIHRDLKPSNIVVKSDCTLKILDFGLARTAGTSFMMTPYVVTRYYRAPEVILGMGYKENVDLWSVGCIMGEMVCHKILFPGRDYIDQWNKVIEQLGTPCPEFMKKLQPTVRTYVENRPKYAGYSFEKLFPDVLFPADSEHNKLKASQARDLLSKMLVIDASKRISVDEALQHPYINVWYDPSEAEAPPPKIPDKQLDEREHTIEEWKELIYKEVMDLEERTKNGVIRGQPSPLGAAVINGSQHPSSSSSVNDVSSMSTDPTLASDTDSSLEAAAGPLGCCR

O=c1c2cnc(Nc3ccc(N4CCNCC4)cc3)nc2ccn1-c1c(Cl)cccc1Cl [Example 1, 6-(2,6-Dichlorophenyl)-2-((4-(piperazin-1-yl)phenyl)amino)pyrido[4,3-d]pyrimidin-5(6H)-one]
− (Inhibition <75% @ 300-350 nM): Inhibition AMPK A1/B1/G1 (AMPK A1/B1/G1) | Inhibition ERBB2 (HER2) (ERBB2 (HER2)) | Inhibition GSK3B (GSK3 beta) (GSK3B (GSK3 beta)) | Inhibition IGF1R (IGF1R) | Inhibition KDR (VEGFR2) (KDR (VEGFR2)) | Inhibition LCK (LCK) | Inhibition MAPK8 (JNK1) (MAPK8 (JNK1)) | Inhibition MET (cMet) (MET (cMet)) | Inhibition PDGFRB (PDGFR beta) (PDGFRB (PDGFR beta)) | Inhibition PLK1 (PLK1) | Inhibition SRC (Src)

Source: patent US9714244B2, “Substituted pyrido[4,3-d]pyrimidines as Wee-1 inhibitors” (ALMAC DISCOVERY LIMITED, priority 2013, dated 2017)
